Data from paper PMC4161152 (Journal of Medicinal Chemistry, 2014).

Experiments:
Format in all cases: cell-based
[1] = tested on: human Raji lymphoma cells; experiment: Raji lymphoma cell MTT assay
[2] = target: T1, MCT1 (Mus musculus, UniProt P53986); experiment: MCF7_MCT1 14C-lactate transport assay; conditions: IC50 (nM) lactate transport, labeled (14C) lactate transport, MCF7 breast cancer cells engineered to overexpress MCT1, 10 min on ice
T1 sequence (P53986 1-493): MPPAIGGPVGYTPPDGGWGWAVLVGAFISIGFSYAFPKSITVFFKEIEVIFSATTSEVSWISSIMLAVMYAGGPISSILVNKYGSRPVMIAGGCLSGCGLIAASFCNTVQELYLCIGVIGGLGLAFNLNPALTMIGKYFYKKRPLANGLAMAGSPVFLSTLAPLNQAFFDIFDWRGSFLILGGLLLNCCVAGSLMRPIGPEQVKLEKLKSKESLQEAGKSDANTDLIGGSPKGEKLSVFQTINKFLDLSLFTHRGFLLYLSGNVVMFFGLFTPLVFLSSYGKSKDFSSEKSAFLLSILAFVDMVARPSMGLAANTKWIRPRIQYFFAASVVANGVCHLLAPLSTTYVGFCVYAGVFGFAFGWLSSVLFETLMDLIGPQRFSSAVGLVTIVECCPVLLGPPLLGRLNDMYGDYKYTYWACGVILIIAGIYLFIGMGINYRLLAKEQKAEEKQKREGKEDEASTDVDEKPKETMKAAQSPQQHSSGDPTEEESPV

[3] = tested on: MCF7_MCT4 cells; experiment: MCF7_MCT4 MTT assay; conditions: Homo sapiens, 96 h, read-out: growth inhibition EC50, MCF7_MCT4 cells
[4] = target: T2, human MCT4 (Homo sapiens, UniProt O15427); experiment: 14C lactate uptake in MCF7_MCT4 cells; conditions: increased uptake versus parental MCF7 cells
T2 sequence (O15427 1-465): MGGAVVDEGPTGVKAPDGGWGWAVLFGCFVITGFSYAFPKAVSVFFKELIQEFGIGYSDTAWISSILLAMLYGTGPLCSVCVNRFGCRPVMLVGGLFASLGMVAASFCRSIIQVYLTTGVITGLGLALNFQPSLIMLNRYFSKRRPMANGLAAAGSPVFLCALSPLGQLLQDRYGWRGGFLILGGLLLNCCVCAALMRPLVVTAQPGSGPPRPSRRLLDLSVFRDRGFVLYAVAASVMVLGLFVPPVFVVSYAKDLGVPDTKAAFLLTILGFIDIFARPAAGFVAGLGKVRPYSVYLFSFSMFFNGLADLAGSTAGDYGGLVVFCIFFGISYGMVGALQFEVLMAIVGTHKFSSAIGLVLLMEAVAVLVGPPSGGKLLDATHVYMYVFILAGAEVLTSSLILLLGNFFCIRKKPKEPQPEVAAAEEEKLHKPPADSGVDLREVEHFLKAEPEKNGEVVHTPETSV

Row | SMILES | IC50 [2] [nM] | activity in Raji lymphoma cell proliferation assay (in words) [1] | also measured
1 | Cc1n[nH]c(C)c1Cc1nc2c(nc1CCCCCO)c(=O)n(C)c(=O)n2CC(C)C [Compound 31] |  | inactive | 
2 | CC(C)Cn1c(=O)n(C)c(=O)c2c1nc(Cc1cccc3ccccc13)c(=O)n2CCCCCCO [Compound 14d] |  | inactive | 
3 | COCCCCCc1nc2c(=O)n(C)c(=O)n(CC(C)C)c2nc1Cc1cccc2ccccc12 [Compound 28] |  | largely inactive | 
4 | CC(C)Cn1c(=O)n(C)c(=O)c2nc(/C=C\CCCO)c(Cc3cccc4ccccc34)nc21 [Compound 27] | 116 |  | fold higher EC50 than clinical compound 2 [1]: 2–4 fold
5 | CC(C)Cc1nn(C)c(=O)c2c(SCCCO)n(Cc3cccc4ccccc34)cc12 [Compound 1, reference compound] |  |  | EC50 [3]: > 10 µM; effect on 14C lactate uptake in MCF7_MCT4 cells (in words) [4]: not inhibited
6 | CC(C)Cn1c(=O)n(C)c(=O)c2[nH]c(=O)c(Cc3cccc4ccccc34)nc21 [Compound 12] |  | inactive | 
7 | CC(C)Cn1c(=O)n(C)c(=O)c2nc(SCCCCO)c(Cc3cccc4ccccc34)nc21 [Compound 15c] |  |  | fold higher EC50 than clinical compound 2 [1]: 2–4 fold

Now from value to compound, other results behind:

Row | IC50 [2] [nM] | SMILES | activity in Raji lymphoma cell proliferation assay (in words) [1] | also measured
8 | 192 | CC(C)Cn1c(=O)n(C)c(=O)c2nc(CCCCCO)c(Cc3cccc4ccccc34)nc21 [Compound 23b] |  | fold higher EC50 than clinical compound 2 [1]: 2–4 fold
9 | 548 | CC(C)Cn1c(=O)n(C)c(=O)c2c1nc(Cc1cccc3ccccc13)c(=O)n2CCCCO [Compound 14b] |  | 
10 | > 2000 | CC(C)Cn1c(=O)n(C)c(=O)c2nc(CCCCO)c(Cc3cccc4ccccc34)nc21 [Compound 23a] |  | 
11 | 858 | CC(C)Cn1c(=O)n(C)c(=O)c2nc(SCCCO)c(Cc3cccc4ccccc34)nc21 [Compound 15b] |  | 
